Data as given in ChEMBL document CHEMBL5465560, “Selectivity Literature for EUbOPEN Chemogenomic Library” (2024).

Legend:
[1] = biological target: T1, Receptor-interacting serine/threonine-protein kinase 4 (Homo sapiens) (UniProt P57078); assay: Selectivity interaction (KinomeScan (DiscoverX)) EUB0001049a RIPK4; conditions: at 1 µM
T1 sequence (whole entry): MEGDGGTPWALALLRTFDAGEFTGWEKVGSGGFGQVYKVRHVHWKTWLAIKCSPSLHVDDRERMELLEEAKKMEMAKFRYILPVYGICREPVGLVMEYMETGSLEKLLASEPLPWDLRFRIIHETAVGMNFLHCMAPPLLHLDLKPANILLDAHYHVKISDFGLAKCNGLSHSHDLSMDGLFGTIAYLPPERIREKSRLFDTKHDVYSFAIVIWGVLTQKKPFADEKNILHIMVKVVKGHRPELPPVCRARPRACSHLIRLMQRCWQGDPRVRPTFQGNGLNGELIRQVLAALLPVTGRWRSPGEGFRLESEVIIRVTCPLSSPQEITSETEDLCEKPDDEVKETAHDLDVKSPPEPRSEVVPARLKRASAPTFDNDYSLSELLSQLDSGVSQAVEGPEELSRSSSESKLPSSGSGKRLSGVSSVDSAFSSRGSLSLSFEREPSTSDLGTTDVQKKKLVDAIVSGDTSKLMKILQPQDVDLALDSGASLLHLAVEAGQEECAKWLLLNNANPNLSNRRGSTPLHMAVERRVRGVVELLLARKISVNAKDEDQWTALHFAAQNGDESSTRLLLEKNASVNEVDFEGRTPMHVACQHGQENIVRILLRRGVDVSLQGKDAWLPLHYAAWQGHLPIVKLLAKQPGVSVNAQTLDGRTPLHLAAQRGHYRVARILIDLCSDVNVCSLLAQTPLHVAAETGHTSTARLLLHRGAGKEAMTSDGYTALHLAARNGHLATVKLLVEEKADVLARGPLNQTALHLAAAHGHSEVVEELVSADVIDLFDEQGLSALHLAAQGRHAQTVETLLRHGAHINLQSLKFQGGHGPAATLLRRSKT

Ephrin type-A receptor 4 = Ephrin type-A receptor 4 (Homo sapiens, UniProt P54764); assay: Selectivity interaction (Kinase panel (Invitrogen)) EUB0000639a EPHA4; conditions: at 200 nM
Chain of Ephrin type-A receptor 4 (P54764 whole entry): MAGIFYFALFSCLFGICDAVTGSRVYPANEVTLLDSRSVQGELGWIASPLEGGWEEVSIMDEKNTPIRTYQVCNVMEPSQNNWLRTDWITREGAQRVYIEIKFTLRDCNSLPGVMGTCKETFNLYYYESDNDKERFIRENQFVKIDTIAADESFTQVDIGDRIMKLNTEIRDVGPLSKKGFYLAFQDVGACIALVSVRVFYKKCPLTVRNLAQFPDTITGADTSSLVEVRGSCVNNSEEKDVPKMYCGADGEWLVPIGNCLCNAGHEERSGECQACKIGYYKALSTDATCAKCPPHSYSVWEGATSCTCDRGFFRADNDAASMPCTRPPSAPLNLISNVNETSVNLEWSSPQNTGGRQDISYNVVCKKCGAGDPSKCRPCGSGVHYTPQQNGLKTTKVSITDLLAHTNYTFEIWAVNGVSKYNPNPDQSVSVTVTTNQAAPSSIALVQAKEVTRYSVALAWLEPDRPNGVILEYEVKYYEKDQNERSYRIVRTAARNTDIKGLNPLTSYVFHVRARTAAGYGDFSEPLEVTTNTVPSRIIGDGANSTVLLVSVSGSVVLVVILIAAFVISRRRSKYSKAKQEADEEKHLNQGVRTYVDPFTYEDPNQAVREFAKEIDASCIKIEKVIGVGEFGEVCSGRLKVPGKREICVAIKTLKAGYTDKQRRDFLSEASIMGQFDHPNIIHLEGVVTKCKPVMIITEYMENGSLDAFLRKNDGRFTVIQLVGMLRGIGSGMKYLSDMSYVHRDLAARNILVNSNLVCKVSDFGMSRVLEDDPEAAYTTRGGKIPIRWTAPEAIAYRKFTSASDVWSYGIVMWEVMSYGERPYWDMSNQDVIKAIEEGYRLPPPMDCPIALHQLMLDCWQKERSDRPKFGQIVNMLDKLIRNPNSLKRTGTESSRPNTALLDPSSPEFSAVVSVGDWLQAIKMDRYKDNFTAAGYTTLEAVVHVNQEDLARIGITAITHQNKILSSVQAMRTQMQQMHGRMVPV

[2] = biological target: T2, Mitogen-activated protein kinase 12 (Homo sapiens) (UniProt P53778); assay: Selectivity interaction (ActivX KiNativ screen (kinase selectivity in THP-1 cell lysates)) EUB0000639a MAPK12; format: subcellular; conditions: lysate
T2 sequence (whole entry): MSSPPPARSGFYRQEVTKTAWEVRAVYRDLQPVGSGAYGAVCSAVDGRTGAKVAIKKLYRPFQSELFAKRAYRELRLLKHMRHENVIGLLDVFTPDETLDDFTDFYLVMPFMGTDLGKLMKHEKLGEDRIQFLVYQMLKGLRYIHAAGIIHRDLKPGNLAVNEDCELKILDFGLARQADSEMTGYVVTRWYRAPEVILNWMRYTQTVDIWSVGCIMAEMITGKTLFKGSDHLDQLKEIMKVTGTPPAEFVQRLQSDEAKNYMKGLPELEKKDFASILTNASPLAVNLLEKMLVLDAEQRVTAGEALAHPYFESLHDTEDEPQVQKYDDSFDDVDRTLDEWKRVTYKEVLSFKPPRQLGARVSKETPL

[3] = biological target: T3, Myosin light chain kinase family member 4 (Homo sapiens) (UniProt Q86YV6); assay: Selectivity interaction (KinomeScan (DiscoverX)) EUB0001550a MYLK4; conditions: at 1 µM
T3 sequence (whole entry): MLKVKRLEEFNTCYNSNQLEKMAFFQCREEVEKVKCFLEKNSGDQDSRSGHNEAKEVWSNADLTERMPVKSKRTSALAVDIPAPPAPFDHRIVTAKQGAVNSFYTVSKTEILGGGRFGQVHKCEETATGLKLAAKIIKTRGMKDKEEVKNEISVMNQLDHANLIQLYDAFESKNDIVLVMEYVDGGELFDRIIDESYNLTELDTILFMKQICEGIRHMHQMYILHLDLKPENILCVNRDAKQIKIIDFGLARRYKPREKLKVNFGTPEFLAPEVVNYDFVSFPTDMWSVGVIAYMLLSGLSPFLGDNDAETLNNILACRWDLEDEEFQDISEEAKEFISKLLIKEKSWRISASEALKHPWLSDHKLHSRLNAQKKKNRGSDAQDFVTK

[4] = biological target: Protein arginine N-methyltransferase 6 (Homo sapiens, UniProt Q96LA8); assay: Selectivity interaction (Methyltransferase screen (radiometric assays, panel of 8 PRMTs, 21 protein lysine methyltransferases, 3 DNA methyltransferases, and one RNA methyltransferase)) EUB0000271b PRMT6
Chain of Protein arginine N-methyltransferase 6 (Q96LA8 whole entry, looked up): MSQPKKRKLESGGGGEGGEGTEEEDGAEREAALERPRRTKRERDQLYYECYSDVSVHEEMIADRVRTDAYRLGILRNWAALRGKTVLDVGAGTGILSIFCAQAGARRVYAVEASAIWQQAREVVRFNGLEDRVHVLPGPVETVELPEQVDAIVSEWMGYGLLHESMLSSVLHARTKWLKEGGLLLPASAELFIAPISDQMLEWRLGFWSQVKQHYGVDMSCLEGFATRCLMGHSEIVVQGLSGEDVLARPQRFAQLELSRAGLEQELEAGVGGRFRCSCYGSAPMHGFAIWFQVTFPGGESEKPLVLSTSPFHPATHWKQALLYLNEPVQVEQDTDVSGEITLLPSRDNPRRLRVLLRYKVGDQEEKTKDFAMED

[5] = biological target: Tyrosine-protein kinase Fgr (Homo sapiens) (UniProt P09769); assay: Selectivity interaction (KinomeScan (DiscoverX)) EUB0000595a FGR; conditions: at 10 µM
Chain of Tyrosine-protein kinase Fgr (Homo sapiens) (P09769 2-529 limits assumed): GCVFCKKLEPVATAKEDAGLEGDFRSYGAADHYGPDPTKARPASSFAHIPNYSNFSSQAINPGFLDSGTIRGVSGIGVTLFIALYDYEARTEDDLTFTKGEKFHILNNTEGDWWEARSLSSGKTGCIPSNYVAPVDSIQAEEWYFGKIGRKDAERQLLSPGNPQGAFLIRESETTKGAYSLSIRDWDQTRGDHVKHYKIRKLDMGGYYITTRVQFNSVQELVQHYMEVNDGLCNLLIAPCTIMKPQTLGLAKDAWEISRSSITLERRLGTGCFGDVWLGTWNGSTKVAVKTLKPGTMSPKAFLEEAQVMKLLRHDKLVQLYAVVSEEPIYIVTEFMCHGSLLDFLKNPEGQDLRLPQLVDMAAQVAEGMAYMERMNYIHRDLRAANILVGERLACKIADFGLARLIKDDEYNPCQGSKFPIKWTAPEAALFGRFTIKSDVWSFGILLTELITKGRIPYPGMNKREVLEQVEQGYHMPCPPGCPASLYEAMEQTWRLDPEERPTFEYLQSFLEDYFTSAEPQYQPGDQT

[6] = biological target: T4, Mitogen-activated protein kinase 15 (Homo sapiens) (UniProt Q8TD08); assay: Selectivity interaction (ProQinase) EUB0000171b MAPK15
T4 sequence (whole entry): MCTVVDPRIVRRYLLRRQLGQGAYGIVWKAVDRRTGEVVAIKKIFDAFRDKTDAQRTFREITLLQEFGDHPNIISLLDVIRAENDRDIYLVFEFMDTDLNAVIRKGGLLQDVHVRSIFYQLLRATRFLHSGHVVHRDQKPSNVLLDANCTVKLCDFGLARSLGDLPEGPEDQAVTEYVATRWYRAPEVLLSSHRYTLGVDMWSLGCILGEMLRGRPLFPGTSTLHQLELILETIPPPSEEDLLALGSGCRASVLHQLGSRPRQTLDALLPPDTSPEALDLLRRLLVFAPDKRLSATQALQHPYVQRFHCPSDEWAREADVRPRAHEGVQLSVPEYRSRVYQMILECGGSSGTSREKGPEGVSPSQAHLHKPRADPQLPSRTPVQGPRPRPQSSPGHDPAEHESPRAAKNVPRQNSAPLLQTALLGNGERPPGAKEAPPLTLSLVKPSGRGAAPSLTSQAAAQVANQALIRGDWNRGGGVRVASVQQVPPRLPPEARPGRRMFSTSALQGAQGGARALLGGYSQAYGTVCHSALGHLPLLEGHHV

[7] = Selectivity interaction (KinomeScan (DiscoverX)) EUB0000045b CDPK1
[8] = system: Tyrosine-protein kinase ABL1 (Homo sapiens), P00519 [Q252H]; assay: Selectivity interaction (KinomeScan (DiscoverX)) EUB0000045b ABL1; conditions: at 10 µM
[9] = biological target: Cyclin-dependent kinase-like 1 (Homo sapiens) (UniProt Q00532); assay: Selectivity interaction (KinomeScan (DiscoverX)) EUB0000618a CDKL1; conditions: at 10 µM
Chain of Cyclin-dependent kinase-like 1 (Homo sapiens) (Q00532 whole entry): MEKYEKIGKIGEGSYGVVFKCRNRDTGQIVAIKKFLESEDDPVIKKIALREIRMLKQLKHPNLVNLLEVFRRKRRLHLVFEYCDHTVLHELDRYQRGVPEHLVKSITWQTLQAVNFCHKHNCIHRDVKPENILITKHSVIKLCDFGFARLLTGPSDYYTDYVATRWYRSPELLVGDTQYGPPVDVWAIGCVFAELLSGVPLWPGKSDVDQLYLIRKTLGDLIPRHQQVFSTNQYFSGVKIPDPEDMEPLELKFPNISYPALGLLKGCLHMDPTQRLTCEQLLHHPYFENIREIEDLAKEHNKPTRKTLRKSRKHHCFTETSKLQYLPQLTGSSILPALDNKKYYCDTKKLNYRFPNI

[10] = biological target: Tyrosine-protein kinase Fes/Fps (Homo sapiens) (UniProt P07332); assay: Selectivity interaction (KinomeScan (DiscoverX)) EUB0000607a FES; conditions: at 10 µM
Chain of Tyrosine-protein kinase Fes/Fps (Homo sapiens) (P07332 whole entry): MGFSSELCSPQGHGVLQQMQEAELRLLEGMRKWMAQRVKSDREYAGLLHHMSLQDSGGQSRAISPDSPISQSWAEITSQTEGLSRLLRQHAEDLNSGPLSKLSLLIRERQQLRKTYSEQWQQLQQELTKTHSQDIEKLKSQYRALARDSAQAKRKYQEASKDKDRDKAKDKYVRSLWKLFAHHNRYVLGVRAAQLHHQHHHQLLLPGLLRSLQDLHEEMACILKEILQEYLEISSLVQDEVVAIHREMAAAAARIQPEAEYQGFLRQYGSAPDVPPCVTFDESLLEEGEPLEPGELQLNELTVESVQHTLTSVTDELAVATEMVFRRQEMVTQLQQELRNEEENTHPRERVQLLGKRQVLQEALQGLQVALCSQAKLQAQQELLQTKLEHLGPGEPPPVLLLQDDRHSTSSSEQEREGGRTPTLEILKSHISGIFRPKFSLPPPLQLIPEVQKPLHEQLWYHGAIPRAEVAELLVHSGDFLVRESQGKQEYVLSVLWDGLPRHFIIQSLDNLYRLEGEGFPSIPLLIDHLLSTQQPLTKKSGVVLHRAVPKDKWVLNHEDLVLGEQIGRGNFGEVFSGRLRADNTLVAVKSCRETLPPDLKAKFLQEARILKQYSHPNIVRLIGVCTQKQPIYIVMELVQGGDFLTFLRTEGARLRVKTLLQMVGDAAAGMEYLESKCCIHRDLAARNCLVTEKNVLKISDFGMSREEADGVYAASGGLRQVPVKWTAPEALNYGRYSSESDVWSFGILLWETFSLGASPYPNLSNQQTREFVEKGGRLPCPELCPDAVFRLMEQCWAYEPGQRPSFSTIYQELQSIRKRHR

Compound: COc1cc(Nc2nc(C)cc(-c3cnn4nc(OC)ccc34)n2)cc(C(F)(F)F)c1
- % of control [1]: 89%

Compound: CC[C@@H]1[C@H](F)C(=O)N[C@@H]1COc1nccc2cc(C(N)=O)c(OC)cc12 [ZIMLOVISERTIB]
- % of inhibition (Ephrin type-A receptor 4): 6.54%
- % of inhibition ([2]; at 0.01 µM): -4.4%
- % of inhibition ([2]; at 0.04 µM): 6%
- % of inhibition ([2]; at 0.2 µM): -3.6%
- % of inhibition ([2]; at 1 µM): 7.4%
- % of inhibition ([2]; at 5 µM): 20.3%

Compound: CN(C)CC#Cc1ccc2[nH]c3c(c2c1)-c1nc(N)ncc1CCC3
- % of control [3]: 1.8%

Compound: Cc1cc(C)cc([C@@H]2c3cc(C)ccc3NC(=O)CN2C(=O)c2ccc(Br)s2)c1
- % of activity ([4]; at 1 µM): 16.7%
- % of activity ([4]; at 10 µM): 7.33%

Compound: COCC(=O)NC/C=C/c1ccc2ncnc(Nc3ccc(Oc4ccc(C)nc4)c(C)c3)c2c1 [CP-724714]
- % of control [5]: 89%

Compound: C=CC(=O)Nc1cccc(C(=O)Nc2ccc(Nc3cc(-c4[nH]c(SC)nc4C)ccn3)cc2)c1
- % of control ([6]; at 1 µM): 66%
- % of control ([6]; at 5 µM): 31%

Compound: C=CC(=O)Nc1cc(-n2c(=O)ccc3cnc4ccc(-c5ccc(NS(C)(=O)=O)cc5)cc4c32)ccc1C
- % of control ([7]; at 1 µM): 100%
- % of control ([7]; at 10 µM): 62%
- % of control [8]: 75%

Compound: O[C@H]1CC[C@H](Nc2ncc3nc(Nc4c(F)cc(F)cc4F)n([C@H]4CCOC4)c3n2)CC1
- % of control [9]: 95%

Compound: CNC(=O)Nc1ccc(-c2nc(N3CC4CCC(C3)O4)c3cnn(C4CCC5(CC4)OCCO5)c3n2)cc1
- % of control [10]: 100%
